Source: the supplement of paper PMC10307832

Tests used:
Test in all cases: relative viability (nuclei count vs DMSO), 5 days (fraction); higher = more cells survive
OSI-027 + Vorinostat = compound: COc1cccc2cc(-c3nc([C@H]4CC[C@H](C(=O)O)CC4)n4ncnc(N)c34)[nH]c12 [OSI-027] + O=C(CCCCCCC(=O)Nc1ccccc1)NO [Vorinostat] (partner 1 µM)
Summary of the method: (§1)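 Lung cancer cell lines were seeded in 1536-well plates and dosed by pin tool the next day, with either a single drug or a fixed anchor-drug dose combined with five library-drug doses (not always all listed) spaced in √10 steps. Five days later, one step fixed the cells and stained their nuclei (final 0.05% Triton X-100, 1% formaldehyde, 1 ug/ml Hoechst), and nuclei were counted on 4× images. Relative viability is the nuclei count in treated wells divided by the count in vehicle wells, and each value is the median of duplicate plates.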

Alpelisib + Luminespib = compound: Cc1nc(NC(=O)N2CCC[C@H]2C(N)=O)sc1-c1ccnc(C(C)(C)C(F)(F)F)c1 [Alpelisib] + CCNC(=O)c1noc(-c2cc(C(C)C)c(O)cc2O)c1-c1ccc(CN2CCOCC2)cc1 [Luminespib] (partner 0.01 µM)
Summary of the method: as §1

OSI-027 + Crizotinib = compound: COc1cccc2cc(-c3nc([C@H]4CC[C@H](C(=O)O)CC4)n4ncnc(N)c34)[nH]c12 [OSI-027] + C[C@@H](Oc1cc(-c2cnn(C3CCNCC3)c2)cnc1N)c1c(Cl)ccc(F)c1Cl [Crizotinib] (partner 1 µM)
Summary of the method: as §1

Vemurafenib + Navitoclax = compound: CCCS(=O)(=O)Nc1ccc(F)c(C(=O)c2c[nH]c3ncc(-c4ccc(Cl)cc4)cc23)c1F [Vemurafenib] + CC1(C)CCC(c2ccc(Cl)cc2)=C(CN2CCN(c3ccc(C(=O)NS(=O)(=O)c4ccc(N[C@H](CCN5CCOCC5)CSc5ccccc5)c(S(=O)(=O)C(F)(F)F)c4)cc3)CC2)C1 [Navitoclax] (partner 0.5 µM)
Summary of the method: as §1

NCI-H1975
relative viability (OSI-027 + Vorinostat; first compound 0.01 µM): 0.722 | relative viability (OSI-027 + Vorinostat; first compound 0.03162 µM): 0.647 | relative viability (OSI-027 + Vorinostat; first compound 0.1 µM): 0.672 | relative viability (OSI-027 + Vorinostat; first compound 0.3162 µM): 0.657 | relative viability (OSI-027 + Vorinostat; first compound 1 µM): 0.496 | relative viability (Alpelisib + Luminespib; first compound 0.04 µM): 0.227 | relative viability (Alpelisib + Luminespib; first compound 0.1265 µM): 0.204 | relative viability (Alpelisib + Luminespib; first compound 0.4 µM): 0.199 | relative viability (Alpelisib + Luminespib; first compound 1.265 µM): 0.184 | relative viability (Alpelisib + Luminespib; first compound 4 µM): 0.155 | relative viability (OSI-027 + Crizotinib; first compound 0.01 µM): 1.1 | relative viability (OSI-027 + Crizotinib; first compound 0.03162 µM): 0.88 | relative viability (OSI-027 + Crizotinib; first compound 0.1 µM): 0.99 | relative viability (OSI-027 + Crizotinib; first compound 0.3162 µM): 0.97 | relative viability (OSI-027 + Crizotinib; first compound 1 µM): 0.828 | relative viability (Vemurafenib + Navitoclax; first compound 0.03162 µM): 0.94 | relative viability (Vemurafenib + Navitoclax; first compound 0.1 µM): 1.11 | relative viability (Vemurafenib + Navitoclax; first compound 0.3162 µM): 0.952 | relative viability (Vemurafenib + Navitoclax; first compound 1 µM): 1.03

A-427
relative viability (OSI-027 + Vorinostat; first compound 0.01 µM): 0.886 | relative viability (OSI-027 + Vorinostat; first compound 0.03162 µM): 0.844 | relative viability (OSI-027 + Vorinostat; first compound 0.1 µM): 0.78 | relative viability (OSI-027 + Vorinostat; first compound 0.3162 µM): 0.721 | relative viability (OSI-027 + Vorinostat; first compound 1 µM): 0.542 | relative viability (Alpelisib + Luminespib; first compound 0.04 µM): 0.909 | relative viability (Alpelisib + Luminespib; first compound 0.1265 µM): 0.881 | relative viability (Alpelisib + Luminespib; first compound 0.4 µM): 1.09 | relative viability (Alpelisib + Luminespib; first compound 1.265 µM): 0.83 | relative viability (Alpelisib + Luminespib; first compound 4 µM): 0.92 | relative viability (OSI-027 + Crizotinib; first compound 0.01 µM): 0.91 | relative viability (OSI-027 + Crizotinib; first compound 0.03162 µM): 0.821 | relative viability (OSI-027 + Crizotinib; first compound 0.1 µM): 0.866 | relative viability (OSI-027 + Crizotinib; first compound 0.3162 µM): 0.673 | relative viability (OSI-027 + Crizotinib; first compound 1 µM): 0.374 | relative viability (Vemurafenib + Navitoclax; first compound 0.03162 µM): 0.969 | relative viability (Vemurafenib + Navitoclax; first compound 0.1 µM): 0.887 | relative viability (Vemurafenib + Navitoclax; first compound 0.3162 µM): 0.977 | relative viability (Vemurafenib + Navitoclax; first compound 1 µM): 0.94

SK-LU-1
relative viability (OSI-027 + Vorinostat; first compound 0.01 µM): 0.809 | relative viability (OSI-027 + Vorinostat; first compound 0.03162 µM): 0.618 | relative viability (OSI-027 + Vorinostat; first compound 0.1 µM): 0.682 | relative viability (OSI-027 + Vorinostat; first compound 0.3162 µM): 0.563 | relative viability (OSI-027 + Vorinostat; first compound 1 µM): 0.411 | relative viability (Alpelisib + Luminespib; first compound 0.04 µM): 0.199 | relative viability (Alpelisib + Luminespib; first compound 0.1265 µM): 0.222 | relative viability (Alpelisib + Luminespib; first compound 0.4 µM): 0.202 | relative viability (Alpelisib + Luminespib; first compound 1.265 µM): 0.175 | relative viability (Alpelisib + Luminespib; first compound 4 µM): 0.152 | relative viability (OSI-027 + Crizotinib; first compound 0.01 µM): 0.937 | relative viability (OSI-027 + Crizotinib; first compound 0.03162 µM): 0.789 | relative viability (OSI-027 + Crizotinib; first compound 0.1 µM): 0.644 | relative viability (OSI-027 + Crizotinib; first compound 0.3162 µM): 0.531 | relative viability (OSI-027 + Crizotinib; first compound 1 µM): 0.358 | relative viability (Vemurafenib + Navitoclax; first compound 0.03162 µM): 0.914 | relative viability (Vemurafenib + Navitoclax; first compound 0.1 µM): 0.74 | relative viability (Vemurafenib + Navitoclax; first compound 0.3162 µM): 0.751 | relative viability (Vemurafenib + Navitoclax; first compound 1 µM): 0.564

PC-3 [JPC-3]
relative viability (OSI-027 + Vorinostat; first compound 0.01 µM): 0.649 | relative viability (OSI-027 + Vorinostat; first compound 0.03162 µM): 0.787 | relative viability (OSI-027 + Vorinostat; first compound 0.1 µM): 0.454 | relative viability (OSI-027 + Vorinostat; first compound 0.3162 µM): 0.56 | relative viability (OSI-027 + Vorinostat; first compound 1 µM): 0.527 | relative viability (Alpelisib + Luminespib; first compound 0.04 µM): 0.731 | relative viability (Alpelisib + Luminespib; first compound 0.1265 µM): 0.567 | relative viability (Alpelisib + Luminespib; first compound 0.4 µM): 0.739 | relative viability (Alpelisib + Luminespib; first compound 1.265 µM): 0.687 | relative viability (Alpelisib + Luminespib; first compound 4 µM): 0.622 | relative viability (OSI-027 + Crizotinib; first compound 0.01 µM): 0.999 | relative viability (OSI-027 + Crizotinib; first compound 0.03162 µM): 0.943 | relative viability (OSI-027 + Crizotinib; first compound 0.1 µM): 1.02 | relative viability (OSI-027 + Crizotinib; first compound 0.3162 µM): 0.984 | relative viability (OSI-027 + Crizotinib; first compound 1 µM): 0.551 | relative viability (Vemurafenib + Navitoclax; first compound 0.03162 µM): 0.728 | relative viability (Vemurafenib + Navitoclax; first compound 0.3162 µM): 0.936 | relative viability (Vemurafenib + Navitoclax; first compound 1 µM): 0.788

ChaGo-K-1
relative viability (OSI-027 + Vorinostat; first compound 0.01 µM): 0.732 | relative viability (OSI-027 + Vorinostat; first compound 0.03162 µM): 0.815 | relative viability (OSI-027 + Vorinostat; first compound 0.1 µM): 0.709 | relative viability (OSI-027 + Vorinostat; first compound 0.3162 µM): 0.698 | relative viability (OSI-027 + Vorinostat; first compound 1 µM): 0.581 | relative viability (Alpelisib + Luminespib; first compound 0.04 µM): 0.61 | relative viability (Alpelisib + Luminespib; first compound 0.1265 µM): 0.488 | relative viability (Alpelisib + Luminespib; first compound 0.4 µM): 0.706 | relative viability (Alpelisib + Luminespib; first compound 1.265 µM): 0.585 | relative viability (Alpelisib + Luminespib; first compound 4 µM): 0.507 | relative viability (OSI-027 + Crizotinib; first compound 0.01 µM): 1.38 | relative viability (OSI-027 + Crizotinib; first compound 0.03162 µM): 1.02 | relative viability (OSI-027 + Crizotinib; first compound 0.1 µM): 1.2 | relative viability (OSI-027 + Crizotinib; first compound 0.3162 µM): 0.997 | relative viability (OSI-027 + Crizotinib; first compound 1 µM): 0.922 | relative viability (Vemurafenib + Navitoclax; first compound 0.03162 µM): 0.949 | relative viability (Vemurafenib + Navitoclax; first compound 0.1 µM): 0.809 | relative viability (Vemurafenib + Navitoclax; first compound 1 µM): 0.958

NCI-H2023
relative viability (OSI-027 + Vorinostat; first compound 0.01 µM): 0.7 | relative viability (OSI-027 + Vorinostat; first compound 0.03162 µM): 0.698 | relative viability (OSI-027 + Vorinostat; first compound 0.1 µM): 0.526 | relative viability (OSI-027 + Vorinostat; first compound 0.3162 µM): 0.581 | relative viability (OSI-027 + Vorinostat; first compound 1 µM): 0.34 | relative viability (Alpelisib + Luminespib; first compound 0.04 µM): 0.644 | relative viability (Alpelisib + Luminespib; first compound 0.1265 µM): 0.606 | relative viability (Alpelisib + Luminespib; first compound 0.4 µM): 0.679 | relative viability (Alpelisib + Luminespib; first compound 1.265 µM): 0.505 | relative viability (Alpelisib + Luminespib; first compound 4 µM): 0.4 | relative viability (OSI-027 + Crizotinib; first compound 0.01 µM): 0.679 | relative viability (OSI-027 + Crizotinib; first compound 0.03162 µM): 0.587 | relative viability (OSI-027 + Crizotinib; first compound 0.1 µM): 0.614 | relative viability (OSI-027 + Crizotinib; first compound 0.3162 µM): 0.501 | relative viability (OSI-027 + Crizotinib; first compound 1 µM): 0.295 | relative viability (Vemurafenib + Navitoclax; first compound 0.03162 µM): 0.974 | relative viability (Vemurafenib + Navitoclax; first compound 0.1 µM): 1.03 | relative viability (Vemurafenib + Navitoclax; first compound 0.3162 µM): 1.03 | relative viability (Vemurafenib + Navitoclax; first compound 1 µM): 1.02

EBC-1
relative viability (OSI-027 + Crizotinib; first compound 0.01 µM): 0.21 | relative viability (OSI-027 + Crizotinib; first compound 0.03162 µM): 0.21 | relative viability (OSI-027 + Crizotinib; first compound 0.1 µM): 0.183 | relative viability (OSI-027 + Crizotinib; first compound 0.3162 µM): 0.184 | relative viability (OSI-027 + Crizotinib; first compound 1 µM): 0.164 | relative viability (Vemurafenib + Navitoclax; first compound 0.03162 µM): 0.409 | relative viability (Vemurafenib + Navitoclax; first compound 0.1 µM): 0.408 | relative viability (Vemurafenib + Navitoclax; first compound 0.3162 µM): 0.453 | relative viability (Vemurafenib + Navitoclax; first compound 1 µM): 0.461

Calu-6
relative viability (OSI-027 + Crizotinib; first compound 0.01 µM): 0.806 | relative viability (OSI-027 + Crizotinib; first compound 0.03162 µM): 0.726 | relative viability (OSI-027 + Crizotinib; first compound 0.1 µM): 0.765 | relative viability (OSI-027 + Crizotinib; first compound 0.3162 µM): 0.626 | relative viability (OSI-027 + Crizotinib; first compound 1 µM): 0.625 | relative viability (Vemurafenib + Navitoclax; first compound 0.03162 µM): 0.866 | relative viability (Vemurafenib + Navitoclax; first compound 0.1 µM): 0.814 | relative viability (Vemurafenib + Navitoclax; first compound 0.3162 µM): 0.609 | relative viability (Vemurafenib + Navitoclax; first compound 1 µM): 0.707

SW 900
relative viability (OSI-027 + Vorinostat; first compound 0.01 µM): 0.545 | relative viability (OSI-027 + Vorinostat; first compound 0.03162 µM): 0.592 | relative viability (OSI-027 + Vorinostat; first compound 0.1 µM): 0.386 | relative viability (OSI-027 + Vorinostat; first compound 0.3162 µM): 0.421 | relative viability (OSI-027 + Vorinostat; first compound 1 µM): 0.206 | relative viability (Alpelisib + Luminespib; first compound 0.04 µM): 0.163 | relative viability (Alpelisib + Luminespib; first compound 0.1265 µM): 0.168 | relative viability (Alpelisib + Luminespib; first compound 0.4 µM): 0.177 | relative viability (Alpelisib + Luminespib; first compound 1.265 µM): 0.138 | relative viability (Alpelisib + Luminespib; first compound 4 µM): 0.173

NCI-H650
relative viability (OSI-027 + Vorinostat; first compound 0.01 µM): 0.495 | relative viability (OSI-027 + Vorinostat; first compound 0.03162 µM): 0.479 | relative viability (OSI-027 + Vorinostat; first compound 0.1 µM): 0.325 | relative viability (OSI-027 + Vorinostat; first compound 0.3162 µM): 0.303 | relative viability (OSI-027 + Vorinostat; first compound 1 µM): 0.232 | relative viability (Alpelisib + Luminespib; first compound 0.04 µM): 0.752 | relative viability (Alpelisib + Luminespib; first compound 0.1265 µM): 0.744 | relative viability (Alpelisib + Luminespib; first compound 0.4 µM): 0.985 | relative viability (Alpelisib + Luminespib; first compound 1.265 µM): 0.559 | relative viability (Alpelisib + Luminespib; first compound 4 µM): 0.664 | relative viability (OSI-027 + Crizotinib; first compound 0.01 µM): 0.733 | relative viability (OSI-027 + Crizotinib; first compound 0.03162 µM): 0.583 | relative viability (OSI-027 + Crizotinib; first compound 0.1 µM): 0.582 | relative viability (OSI-027 + Crizotinib; first compound 0.3162 µM): 0.469 | relative viability (OSI-027 + Crizotinib; first compound 1 µM): 0.336
